{"source": "patent US20230357269A1", "about": "(LES LABORATOIRES SERVIER, priority 2020, published 2023)", "target": "human recombinant LRRK2 protein (Homo sapiens (Human), UniProt Q5S007)", "sequence (Q5S007 whole entry)": "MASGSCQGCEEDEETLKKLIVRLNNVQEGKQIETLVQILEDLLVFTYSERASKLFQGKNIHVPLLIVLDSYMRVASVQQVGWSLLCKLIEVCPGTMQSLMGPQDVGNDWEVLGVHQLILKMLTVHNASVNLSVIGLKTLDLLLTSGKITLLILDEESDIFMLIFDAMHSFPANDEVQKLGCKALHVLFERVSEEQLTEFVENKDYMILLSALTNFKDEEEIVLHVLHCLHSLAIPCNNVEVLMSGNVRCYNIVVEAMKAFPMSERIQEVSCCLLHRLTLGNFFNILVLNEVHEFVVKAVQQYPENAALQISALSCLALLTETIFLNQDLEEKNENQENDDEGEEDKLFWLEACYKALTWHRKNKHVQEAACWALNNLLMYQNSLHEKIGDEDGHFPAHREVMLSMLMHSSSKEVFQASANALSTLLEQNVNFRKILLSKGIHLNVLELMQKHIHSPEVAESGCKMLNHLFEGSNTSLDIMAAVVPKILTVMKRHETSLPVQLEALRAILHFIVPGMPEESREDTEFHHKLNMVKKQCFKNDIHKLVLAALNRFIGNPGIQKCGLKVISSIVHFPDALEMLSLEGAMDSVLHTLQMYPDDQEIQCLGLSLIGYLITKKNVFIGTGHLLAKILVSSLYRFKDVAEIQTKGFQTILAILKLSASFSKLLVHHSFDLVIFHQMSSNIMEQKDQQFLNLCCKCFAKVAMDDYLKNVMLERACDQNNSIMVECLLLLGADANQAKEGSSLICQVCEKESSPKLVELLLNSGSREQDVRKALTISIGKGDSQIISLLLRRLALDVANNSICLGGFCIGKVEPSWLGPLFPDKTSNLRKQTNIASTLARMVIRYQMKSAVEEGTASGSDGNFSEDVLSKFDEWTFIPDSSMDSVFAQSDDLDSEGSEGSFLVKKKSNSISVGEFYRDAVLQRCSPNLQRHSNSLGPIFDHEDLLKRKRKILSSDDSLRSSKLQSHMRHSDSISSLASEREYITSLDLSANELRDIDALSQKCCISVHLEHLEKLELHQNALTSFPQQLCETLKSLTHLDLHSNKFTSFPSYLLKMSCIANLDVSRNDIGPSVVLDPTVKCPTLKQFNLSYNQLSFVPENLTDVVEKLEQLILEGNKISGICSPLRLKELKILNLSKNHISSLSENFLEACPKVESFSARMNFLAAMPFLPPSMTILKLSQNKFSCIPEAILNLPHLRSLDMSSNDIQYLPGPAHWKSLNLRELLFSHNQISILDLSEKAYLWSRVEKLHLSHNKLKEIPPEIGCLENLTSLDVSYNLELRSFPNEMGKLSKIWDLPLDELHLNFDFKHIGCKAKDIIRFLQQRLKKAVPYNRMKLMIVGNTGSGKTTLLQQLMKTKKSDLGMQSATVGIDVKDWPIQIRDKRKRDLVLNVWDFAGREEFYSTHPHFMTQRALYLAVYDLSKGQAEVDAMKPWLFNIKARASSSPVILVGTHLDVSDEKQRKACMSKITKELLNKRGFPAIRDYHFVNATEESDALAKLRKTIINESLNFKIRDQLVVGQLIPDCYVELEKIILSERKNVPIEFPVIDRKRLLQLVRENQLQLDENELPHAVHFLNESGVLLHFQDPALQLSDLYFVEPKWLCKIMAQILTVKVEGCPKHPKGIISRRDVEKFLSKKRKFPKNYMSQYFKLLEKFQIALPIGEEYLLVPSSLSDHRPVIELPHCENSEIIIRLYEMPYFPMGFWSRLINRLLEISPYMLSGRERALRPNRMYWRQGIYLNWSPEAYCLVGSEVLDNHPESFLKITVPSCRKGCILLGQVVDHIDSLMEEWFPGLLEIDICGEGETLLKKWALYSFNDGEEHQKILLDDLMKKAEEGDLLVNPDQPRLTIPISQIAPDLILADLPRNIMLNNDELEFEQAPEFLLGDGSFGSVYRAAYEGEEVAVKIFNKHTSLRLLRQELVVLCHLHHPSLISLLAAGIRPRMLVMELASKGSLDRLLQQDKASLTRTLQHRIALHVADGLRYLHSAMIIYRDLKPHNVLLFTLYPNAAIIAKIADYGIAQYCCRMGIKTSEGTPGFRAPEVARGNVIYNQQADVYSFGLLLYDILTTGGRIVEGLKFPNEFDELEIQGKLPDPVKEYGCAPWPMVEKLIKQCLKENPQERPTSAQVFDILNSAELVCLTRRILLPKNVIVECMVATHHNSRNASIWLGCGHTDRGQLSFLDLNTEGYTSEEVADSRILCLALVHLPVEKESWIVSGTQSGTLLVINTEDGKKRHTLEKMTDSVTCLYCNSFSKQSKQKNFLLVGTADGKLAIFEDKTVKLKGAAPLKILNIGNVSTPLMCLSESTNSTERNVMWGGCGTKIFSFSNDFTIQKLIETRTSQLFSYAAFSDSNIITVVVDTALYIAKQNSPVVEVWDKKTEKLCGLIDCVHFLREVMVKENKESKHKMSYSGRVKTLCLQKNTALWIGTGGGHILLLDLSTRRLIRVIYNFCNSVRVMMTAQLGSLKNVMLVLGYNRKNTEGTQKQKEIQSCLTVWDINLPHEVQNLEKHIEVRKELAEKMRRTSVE", "assay": "LRRK2 Kinase Activity Assay (ADP-Glo)", "type": "biochemical", "conditions": "LRRK2 wt; LRRKtide peptide and ATP substrates; 1h-incubation at 37° C.", "method_in_brief": "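Recombinant human LRRK2 acted on LRRKtide peptide and ATP for 1 h at 37 °C. ADP formed was detected by ADP-Glo luminescence (ATP depletion, then ADP-to-ATP conversion and luciferase). IC50s came from curve fits over 10 concentrations (N=2).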", "data": [{"smiles": "CC1CCOc2ccc3[nH]nc(c3c2)-c2cnn(c2)CCOC(=O)N1", "note": "(stereo not shown) [Example 85, 11-methyl-8,14-dioxa-4,5,10,19,20-pentaazatetracyclo[13.5.2.1^2,5.0^18,21]tricosa-1(20),2(23),3,15(22),16,18(21)-hexaen-9-one]", "values": [{"measurement": "IC50", "value": "10 to 100", "unit": "nM"}]}, {"smiles": "O=C1NCCCOc2ccc3[nH]nc(c3c2)-c2cc(cc(N3CCC3)c2)CO1", "note": "[Example 35, 4-(azetidin-1-yl)-8,14-dioxa-10,19,20-triazatetracyclo[13.5.2.1^2,6.0^18,21]tricosa-1(20),2,4,6(23),15,17,21-heptaen-9-one]", "values": [{"measurement": "IC50", "value": "< 10", "unit": "nM"}]}, {"smiles": "C[C@@H]1CCNC(=O)OCc2cncc(c2)-c2n[nH]c3ccc(cc23)O1", "note": "[Example 102, (13R)-13-methyl-8,14-dioxa-4,10,19,20-tetraazatetracyclo[13.5.2.1^2,6.0^18,21]tricosa-1(20),2(23),3,5,15(22),16,18(21)-heptaen-9-one]", "values": [{"measurement": "IC50", "value": "< 10", "unit": "nM"}]}, {"smiles": "CN1CCN(Cc2cc3cc(c2)-c2n[nH]c4ccc(cc24)OCCCNC(=O)OC3)CC1", "note": "[Example 44, 4-[(4-methylpiperazin-1-yl)methyl]-8,14-dioxa-10,19,20-triazatetracyclo[13.5.2.1^2,6.0^18,21]tricosa-1(20),2,4,6(23),15,17,21-heptaen-9-one]", "values": [{"measurement": "IC50", "value": "< 10", "unit": "nM"}]}, {"smiles": "N#CC1CCN(c2cc3cc(c2)-c2n[nH]c4ccc(cc24)OCCCNC(=O)OC3)CC1", "note": "[Example 33, 1-{9-oxo-8,14-dioxa-10,19,20-triazatetracyclo[13.5.2.1^2,6.0^18,21]tricosa-1(20),2,4,6(23),15,17,21-heptaen-4-yl}piperidine-4-carbonitrile]", "values": [{"measurement": "IC50", "value": "< 10", "unit": "nM"}]}, {"smiles": "C[C@H]1CCNC(=O)OCc2cccc(c2)-c2n[nH]c3ccc(cc23)O1", "note": "[Example 62, (13S)-13-methyl-8,14-dioxa-10,19,20-triazatetracyclo[13.5.2.1^2,6.0^18,21]tricosa-1(20),2(23),3,5,15(22),16,18(21)-heptaen-9-one]", "values": [{"measurement": "IC50", "value": "< 10", "unit": "nM"}]}, {"smiles": "O=C1OCc2cncc(c2)-c2n[nH]c3ccc(cc23)OCC2CCN1C2", "note": "(stereo not shown) [Example 98, 8,15-dioxa-4,10,20,21-tetraazapentacyclo[14.5.2.1^2,6.1^10,13.0^19,22]pentacosa-1(21),2(25),3,5,16(23),17,19(22)-heptaen-9-one]", "values": [{"measurement": "IC50", "value": "< 10", "unit": "nM"}]}, {"smiles": "O=C1OC2CN1CCCOc1ccc3[nH]nc(c3c1)-c1cccc2c1", "note": "(stereo not shown) [Example 91, 8,14-dioxa-10,19,20-triazapentacyclo[13.5.2.1^2,6.1^7,10.0^18,21]tetracosa-1(20),2(24),3,5,15(22),16,18(21)-heptaen-9-one]", "values": [{"measurement": "IC50", "value": "< 10", "unit": "nM"}]}, {"smiles": "Cc1cc2cc(c1)-c1n[nH]c3ccc(cc13)OCCCNC(=O)OC2", "note": "[Example 18, 4-methyl-8,14-dioxa-10,19,20-triazatetracyclo[13.5.2.1^2,6.0^18,21]tricosa-1(20),2,4,6(23),15,17,21-heptaen-9-one]", "values": [{"measurement": "IC50", "value": "< 10", "unit": "nM"}]}, {"smiles": "CC1CCNC(=O)OCc2cc(F)cc(c2)-c2n[nH]c3ccc(cc23)O1", "note": "(single isomer, unassigned) [Example 100, (13R) or (13S)-4-fluoro-13-methyl-8,14-dioxa-10,19,20-triazatetracyclo[13.5.2.1^2,6.0^18,21]tricosa-1(20),2(23),3,5,15(22),16,18(21)-heptaen-9-one]", "values": [{"measurement": "IC50", "value": "< 10", "unit": "nM"}]}, {"smiles": "O=C1NCC(F)(F)COc2ccc3[nH]nc(c3c2)-c2cnn(n2)CCO1", "note": "[Example 167, 12,12-difluoro-8,14-dioxa-4,5,10,19,20,23-hexaazatetracyclo[13.5.2.1^2,5.0^18,21]tricosa-1(20),2(23),3,15(22),16,18(21)-hexaen-9-one]", "values": [{"measurement": "IC50", "value": "< 10", "unit": "nM"}]}, {"smiles": "C[C@@H]1CCNC(=O)OCCn2cc(cn2)-c2n[nH]c3ccc(cc23)O1", "note": "[Example 97, (13R)-13-methyl-8,14-dioxa-4,5,10,19,20-pentaazatetracyclo[13.5.2.1^2,5.0^18,21]tricosa-1(20),2(23),3,15,17,21-hexaen-9-one]", "values": [{"measurement": "IC50", "value": "< 10", "unit": "nM"}]}, {"smiles": "O=C1NCCCOc2ccc3[nH]nc(c3c2)-c2cc(cc(N3CC[C@@H](O)C3)c2)CO1", "note": "[Example 25, 4-[(3R)-3-hydroxypyrrolidin-1-yl]-8,14-dioxa-10,19,20-triazatetracyclo[13.5.2.1^2,6.0^18,21]tricosa-1(20),2,4,6(23),15,17,21-heptaen-9-one]", "values": [{"measurement": "IC50", "value": "< 10", "unit": "nM"}]}, {"smiles": "O=C1NCCCOc2ccc3[nH]nc(c3c2)-c2cc(cc(C3CC3)c2)CO1", "note": "[Example 48, 4-cyclopropyl-8,14-dioxa-10,19,20-triazatetracyclo[13.5.2.1^2,6.0^18,21]tricosa-1(20),2,4,6(23),15,17,21-heptaen-9-one]", "values": [{"measurement": "IC50", "value": "< 10", "unit": "nM"}]}, {"smiles": "O=C1NCCCOc2ccc3[nH]nc(c3c2)-c2cc(cc(N3CCCCC3)c2)CO1", "note": "[Example 36, 4-(piperidin-1-yl)-8,14-dioxa-10,19,20-triazatetracyclo[13.5.2.1^2,6.0^18,21]tricosa-1(20),2,4,6(23),15,17,21-heptaen-9-one]", "values": [{"measurement": "IC50", "value": "< 10", "unit": "nM"}]}, {"smiles": "CC1Cn2cc(cn2)-c2n[nH]c3ccc(cc23)OCCCNC(=O)O1", "note": "(stereo not shown) [Example 94, 7-methyl-8,14-dioxa-4,5,10,19,20-pentaazatetracyclo[13.5.2.1^2,5.0^18,21]tricosa-1(20),2(23),3,15(22),16,18(21)-hexaen-9-one]", "values": [{"measurement": "IC50", "value": "< 10", "unit": "nM"}]}, {"smiles": "O=C1NCCOc2ccc3[nH]nc(c3c2)-c2cccc(c2)CCO1", "note": "[Example 24, 9,14-dioxa-11,19,20-triazatetracyclo[13.5.2.1^2,6.0^18,21]tricosa-1(20),2,4, 6(23),15,17,21-heptaen-10-one]", "values": [{"measurement": "IC50", "value": "10 to 100", "unit": "nM"}]}, {"smiles": "C[C@@H]1CCNC(=O)OCc2cncc(n2)-c2n[nH]c3ccc(cc23)O1", "note": "[Example 133, (13R)-13-methyl-8,14-dioxa-4,10,19,20,23-pentaazatetracyclo[13.5.2.1^2,6.0^18,21]tricosa-1(20),2,4,6(23),15,17,21-heptaen-9-one]", "values": [{"measurement": "IC50", "value": "< 10", "unit": "nM"}]}, {"smiles": "Cn1nc2cc1CCOC(=O)NCCCOc1ccc3[nH]nc-2c3c1", "note": "[Example 145, 4-methyl-8,14-dioxa-3,4,10,19,20-pentaazatetracyclo[13.5.2.1^2,5.0^18,21]tricosa-1(20),2,5(23),15(22),16,18(21)-hexaen-9-one]", "values": [{"measurement": "IC50", "value": "100 to 1000", "unit": "nM"}]}, {"smiles": "O=C1OC2CN1CCCOc1ccc3[nH]nc(c3c1)-c1cc(F)cc2c1", "note": "(stereo not shown) [Example 60, 4-fluoro-8,14-dioxa-10,19,20-triazapentacyclo[13.5.2.1^2,6.1^7,10.0^18,21]tetracosa-1(20),2(24),3,5,15(22),16,18(21)-heptaen-9-one]", "values": [{"measurement": "IC50", "value": "< 10", "unit": "nM"}]}, {"smiles": "C[C@@H]1CCNC(=O)OCCn2cc(cc2C#N)-c2n[nH]c3ccc(cc23)O1", "note": "[Example 151, (13R)-13-methyl-9-oxo-8,14-dioxa-5,10,19,20-tetraazatetracyclo[13.5.2. 1^2,5.0^18,21]tricosa-1(20),2(23),3,15(22),16,18(21)-hexaene-4-carbonitrile]", "values": [{"measurement": "IC50", "value": "< 10", "unit": "nM"}]}, {"smiles": "C[C@@H]1CCNC(=O)OCc2nc(cc(N3CCCC3)n2)-c2n[nH]c3ccc(cc23)O1", "note": "[Example 129, (13R)-13-methyl-4-(pyrrolidin-1-yl)-8,14-dioxa-5,10,19,20,23-pentaaza tetracyclo[13.5.2.1^2,6.0^18,21]tricosa-1(20),2,4,6(23),15,17,21-heptaen-9-one]", "values": [{"measurement": "IC50", "value": "< 10", "unit": "nM"}]}, {"smiles": "O=C1NCCCOc2ccc3[nH]nc(c3c2)-c2cc(cc(N3CCC(N4CCCC4)CC3)c2)CO1", "note": "[Example 34, 4-[4-(pyrrolidin-1-yl)piperidin-1-yl]-8,14-dioxa-10,19,20-triazatetracyclo[13.5.2.1^2,6.0^18,21]tricosa-1(20),2,4,6(23),15,17,21-heptaen-9-one]", "values": [{"measurement": "IC50", "value": "< 10", "unit": "nM"}]}, {"smiles": "C[C@@H]1CCNC(=O)OCCc2nc(cn2C)-c2n[nH]c3ccc(cc23)O1", "note": "[Example 161, (13R)-4,13-dimethyl-8,14-dioxa-4,10,19,20,23-pentaazatetracyclo[13.5.2.1^2,5.0^18,21]tricosa-1(20),2,5(23),15(22),16,18(21)-hexaen-9-one]", "values": [{"measurement": "IC50", "value": "10 to 100", "unit": "nM"}]}, {"smiles": "O=C1NCCCOc2ccc3[nH]nc(c3c2)-c2cc(cc(N3CCC(F)(F)C3)c2)CO1", "note": "[Example 21, 4-(3,3-difluoropyrrolidin-1-yl)-8,14-dioxa-10,19,20-triazatetracyclo[13.5.2.1^2,6.0^18,21]tricosa-1(20),2,4,6(23),15,17,21-heptaen-9-one]", "values": [{"measurement": "IC50", "value": "< 10", "unit": "nM"}]}, {"smiles": "CN1CC=C(c2cc3cc(c2)-c2n[nH]c4ccc(cc24)OCCCNC(=O)OC3)CC1", "note": "[Example 39, 4-(1-methyl-1,2,3,6-tetrahydropyridin-4-yl)-8,14-dioxa-10,19,20-triazatetra cyclo[13.5.2.1^2,6.0^18,21]tricosa-1(20),2,4,6(23),15,17,21-heptaen-9-one]", "values": [{"measurement": "IC50", "value": "< 10", "unit": "nM"}]}, {"smiles": "CC1OC(=O)NCCCOc2ccc3[nH]nc(c3c2)-c2cncc1c2", "note": "(stereo not shown) [Example 107, 7-methyl-8,14-dioxa-4,10,19,20-tetraazatetracyclo[13.5.2.1^2,6.0^18,21]tricosa-1(20),2,4,6(23),15,17,21-heptaen-9-one]", "values": [{"measurement": "IC50", "value": "< 10", "unit": "nM"}]}, {"smiles": "CCc1cc2nn1CCOC(=O)NCCCOc1ccc3[nH]nc-2c3c1", "note": "[Example 122, 4-ethyl-8,14-dioxa-5,10,19,20,23-pentaazatetracyclo[13.5.2.1^2,5.0^18,21]tricosa-1(20),2(23),3,15,17,21-hexaen-9-one]", "values": [{"measurement": "IC50", "value": "< 10", "unit": "nM"}]}, {"smiles": "CC1CCCN(c2cc3cc(c2)-c2n[nH]c4ccc(cc24)OCCCNC(=O)OC3)C1", "note": "(stereo not shown) [Example 58, 4-(3-methylpiperidin-1-yl)-8,14-dioxa-10,19,20-triazatetracyclo[13.5.2.1^2,6.0^18,21]tricosa-1(20),2,4,6(23),15,17,21-heptaen-9-one]", "values": [{"measurement": "IC50", "value": "< 10", "unit": "nM"}]}, {"smiles": "O=C1NCCCOc2ccc3[nH]nc(c3c2)-c2cc(cc(N3CCCC3=O)c2)CO1", "note": "[Example 74, 4-(2-oxopyrrolidin-1-yl)-8,14-dioxa-10,19,20-triazatetracyclo[13.5.2. 1^2,6.0^18,21]tricosa-1(20),2(23),3,5,15(22),16,18(21)-heptaen-9-one]", "values": [{"measurement": "IC50", "value": "< 10", "unit": "nM"}]}, {"smiles": "COc1ncc2cc1COC(=O)NCC[C@@H](C)Oc1ccc3[nH]nc-2c3c1", "note": "[Example 143, (13R)-5-methoxy-13-methyl-8,14-dioxa-4,10,19,20-tetraazatetracyclo[13.5.2.1^2,6.0^18,21]tricosa-1(20),2,4,6(23),15,17,21-heptaen-9-one]", "values": [{"measurement": "IC50", "value": "< 10", "unit": "nM"}]}]}
